Measured values reported in US5281626A, “Benzenesulfonamide derivatives” (Eisai Co., Ltd., priority 1990, dated 1994).

Key:
male SD rats = assay: Toxicity test, intravenous; assay type: in vivo; details: 50 mg/kg intravenously, three male SD rats per group, observed for 3 hours
Description: A small amount of 1N HCl was added to each of the compounds of Examples 4, 6, 7, 8 and 15 to form aqueous solutions. These solutions were each intravenously administered to the groups of three male SD rats of 7 weeks of age in a dose of 50 mg/kg. […] No rat died.

[1] = tested on: phospholipase A2 (PLA2) contained in the membrane fraction of rabbit heart; assay: Inhibitory activity against phospholipase A2 (PLA2) contained in the membrane fraction of rabbit heart; assay type: biochemical; details: CaCl2 added, 37° C., 30 minutes
Description: (§1) A. Inhibitory activity against phospholipase A2 (PLA2) contained in the membrane fraction of rabbit heart or the supernatant fraction thereof (method) An NZW male rabbit was anesthetized by the intravenous administration of pentobarbital sodium to take out its heart. This heart was washed with ice cooled physiological saline to recover a ventricle, followed by the addition of ice-cooled 0.25M sucrose/20 mM tris hydrochloride buffer (pH: 8.0) in an amount of 5 ml per g of the ventricle. The obtained mixture was mashed with a homogenizer in ice water for 30 minutes and centrifuged at 1,000 g for 10 min. The supernatant was further centrifuged at 105,000 g for 60 min. The centrifugation was conducted at 0° to 4° C. The obtained supernatant was used as such as the supernatant fraction for examination. The precipitate was suspended in the same buffer as that described above and used as the membrane fraction for examination. The protein concentrations of these fractions were each adjusted to 5 mg/ml as determined by Lowry method. […] The test tubes of the membrane fraction were kept at 37° C. for 30 minutes for incubation, while those of the supernatant fraction were kept at 37° C. for 5 minutes for incubation. Each incubation was stopped by the addition of 1 ml of Dole reagent. […] The amount of ^14 C was determined with a liquid scintillation counter. Mepacrine was selected as a comparative compound. (Results)

[2] = tested on: phospholipase A2 (PLA2) contained in the supernatant fraction of rabbit heart; assay: Inhibitory activity against phospholipase A2 (PLA2) contained in the supernatant fraction of rabbit heart; assay type: biochemical; details: EGTA added, 37° C., 5 minutes
Description: as §1

[3] = tested on: cardiac infarct size of rat; assay: Influence on the cardiac infarct size of rat (ligation of the coronary artery); assay type: in vivo; details: 1 mg/kg through the tail vein 15 minutes prior to ligation; 3 hours of ligation
Description: B. Influence on the cardiac infarct size of rat
Sixty-one male rats (weight : 220 to 300 g) were made to get myocardial ischemia by the ligation of the coronary artery. After 3 hours from the ligation, hearts were taken out of the rats and cut into round slices to obtain preparations. These preparations were stained with […]. The area unstained therewith was regarded as a cardiac infarction nidus and the area ratio of the nidus to the left ventricle was determined by the image analysis and regarded as the cardiac infarct size.
The cardiac infarct size was reduced as compared with that of the control rat by 21% or 20% by the administration of the compound of Example 4 or 6 through the tail vein in a dose of 1 mg/kg before 15 minutes prior to the ligation of the coronary artery.

SMILES | mortality (male SD rats) | PLA2 -inhibitory activity IC30, membrane fraction [1] [µM] | PLA2 -inhibitory activity IC30, supernatant fraction [2] [µM] | reduction of cardiac infarct size as compared with control rat [3] [%]
CN(C(=O)/C=C/c1ccc(S(C)(=O)=O)cc1)c1ccc(S(=O)(=O)NC2CCCCN(Cc3ccccn3)C2)cc1 (racemic) [Example 8, (±)N-[1-(2-pyridylmethyl)-3-hexamethyleneimino]-4 {N methyl-N-[(E)-3-(4-methylsulfonylphenyl)-2-propenoyl]amino}benzenesulfonamide] | No rat died | 0.029 | > 100 | 
CN(C(=O)/C=C/c1ccc(S(C)(=O)=O)cc1)c1ccc(S(=O)(=O)NC2CCN(Cc3ccccc3)CC2)cc1 [Example 4, N-(1-benzyl-4-piperidyl)-4-(N-methyl [(E)-3-(4-methylsulfonylphenyl)-2-propenoyl]amino}benzenesulfonamide] | No rat died | 0.032 | > 100 | 21
Cc1cccc(CCN(C)S(=O)(=O)c2ccc(N(C)C(=O)/C=C/c3ccc(S(C)(=O)=O)cc3)cc2)n1 [Example 6, N-methyl N-[2-(6-methyl-2-pyridyl)ethyl]-4-{N-methyl-N-[(E)-3-(4-methylsulfonylphenyl)-2-propenoyl]amino}benzenesulfonamide] | No rat died | 0.056 | > 100 | 20
CN(C(=O)/C=C/c1ccc(S(C)(=O)=O)cc1)c1ccc(S(=O)(=O)N2CCCN(CCc3ccccc3)CC2)cc1 [Example 7, (E)-N-methyl-N-{4-[4-(2 phenylethyl)-homopiperazinyl]sulfonylphenyl}-3-(4-methylsulfonylphenyl)-2-propenamide] | No rat died |  |  | 
Cc1cccc(CCNS(=O)(=O)c2ccc(N(C)C(=O)/C=C/c3ccc(S(C)(=O)=O)cc3)cc2)n1 [Example 15, N-[2-(6-methyl-2-pyridyl)ethyl]-4-{N-methyl-N-[(E)-3-(4-methylsulfonylphenyl)-2-propenoyl]amino}benzenesulfonamide] | No rat died | 0.081 | 61 | 
CN(C(=O)/C=C/C=C/c1cc(Br)c(O)c(Br)c1)c1ccc(S(=O)(=O)NC2CCCCCC2)cc1 [Example 44, N-cycloheptyl-4-{N-methyl-N-[(2E, 4E)-5-(3,5-dibromo-4-hydroxyphenyl) -2,4-pentadienoyl]amino}benzenesulfonamide] |  | 5.1 | 39 | 
CN(C(=O)/C=C/C=C/c1ccc(O)c(O)c1)c1ccc(S(=O)(=O)NC2CCc3ccccc3C2)cc1 (centres unmarked) [Example 48] |  | 1.7 | 32 | 
CN(C(=O)/C=C/c1ccc(O)c(O)c1)c1ccc(S(=O)(=O)NC2CCCCCC2)cc1 [Example 49, N-cycloheptyl-4-{N-methyl-N-[(E)-3-(3,4-dihydroxyphenyl)-2-propenoyl]amino}benzenesulfonamide] |  | 1.8 | 56 | 
CN(C(=O)/C=C/C=C/c1ccc(O)c(O)c1)c1ccc(S(=O)(=O)NC2CCCCCC2)cc1 [Example 50, N-cycloheptyl-4-{N-methyl N-[(2E, 4E)-5-(3,4-dihydroxyphenyl)-2,4-pentadienoyl]amino}benzenesulfonamide] |  | 1.05 | 38 | 
CN(C(=O)/C=C/c1ccc(O)c(O)c1)c1ccc(S(=O)(=O)NC2CCCCC2)cc1 [Example 58, N-cyclohexyl-4-{N-methyl-N-[(E)-3-(3,4-dihydroxyphenyl)-2-propenoyl]amino}benzenesulfonamide] |  | 1.5 | 64 | 
NS(=O)(=O)c1ccc(NC(=O)/C=C/c2ccc(O)c(O)c2)cc1 [Example 77] |  | 20 | > 100 | 
COc1ccc(CCN2CCC(NS(=O)(=O)c3ccc(N(C)C(=O)/C=C/c4ccc(S(C)(=O)=O)cc4)cc3)CC2)cc1OC [Example 79] |  | 0.03 | > 100 | 
Cc1cccc(CCN2CCC(NS(=O)(=O)c3ccc(N(C)C(=O)/C=C/c4ccc(S(C)(=O)=O)cc4)cc3)CC2)n1 [Example 81, N-[1-(2-(6-methyl-2-pyridyl)ethyl]-4-piperidyl-4-{N-methyl-N-(E)-3-(4-methylsulfonylphenyl)-2-propenoyl]amino}benzenesulfonamide] |  | 0.044 | > 100 | 
CN(C(=O)/C=C/c1ccc(O)cc1)c1ccc(S(=O)(=O)NC2CCCCCC2)cc1 [Example 86, N-cycloheptyl-4-{N-methyl-N-[(E)-3-(4-hydroxyphenyl)-2-propenoyl]amino}benzenesulfonamide] |  | 0.62 | 46 | 
CCN(CC)CCCC(C)Nc1c2ccc(Cl)cc2nc2ccc(OC)cc12 (centres unmarked) [mepacrine, reference compound] |  | > 100 | > 100 | 
